Measurements taken from US12364719B2, “Bacillus subtilis strains improving animal performance parameters” (priority 2017, dated 2025).
Read-outs that look alike come from different tables or passages of the source.

System: Clostridium perfringens strain 56
Format: in vivo, Male Ross 308 broilers
Settings: for Mean score (NE): 0-6 score

For CC1(C)S[C@@H]2[C@H](NC(=O)[C@H](N)c3ccc(O)cc3)C(=O)N2[C@H]1C(=O)O [Amoxicillin], the “% NE (birds positive to macroscopic necrotic enteritis lesions)” value (“% NE” below) (Day 25, lesion score 2, infected day 19-22) was 44%, the “% NE” value (Day 25 and 26 combined) was 29% and the “Mean score (NE)” value (Day 25 and 26 combined) was 1.315. For the same compound, the “Mean score (NE)” value (Day 26) was 1.07 and the “% NE” value (Day 26, lesion score 2, infected day 19-22) was 14%.
